Source: publication PMC8887546, “Design and Synthesis of Brain Penetrant Glycopeptide Analogues of PACAP With Neuroprotective Potential for Traumatic Brain Injury and Parkinsonism” (Frontiers in drug discovery, 2022)

What was measured:
Type in all cases: cell-based
human VPAC1 receptor = biological target: T1, human VPAC1 receptor (Homo sapiens, UniProt P32241); test: cAMP stimulation in CHO cells expressing VPAC1; settings: for Emax: CHO, read-out: VPAC1 Emax; for Receptor selectivity ratio VPAC1/PAC1: ratio of cAMP EC50 values; for EC50: read-out: VPAC1 EC50
T1 construct: expressed in transfected cells; host or cells: CHO cells (G418 selection)
T1 sequence (P32241 31-457): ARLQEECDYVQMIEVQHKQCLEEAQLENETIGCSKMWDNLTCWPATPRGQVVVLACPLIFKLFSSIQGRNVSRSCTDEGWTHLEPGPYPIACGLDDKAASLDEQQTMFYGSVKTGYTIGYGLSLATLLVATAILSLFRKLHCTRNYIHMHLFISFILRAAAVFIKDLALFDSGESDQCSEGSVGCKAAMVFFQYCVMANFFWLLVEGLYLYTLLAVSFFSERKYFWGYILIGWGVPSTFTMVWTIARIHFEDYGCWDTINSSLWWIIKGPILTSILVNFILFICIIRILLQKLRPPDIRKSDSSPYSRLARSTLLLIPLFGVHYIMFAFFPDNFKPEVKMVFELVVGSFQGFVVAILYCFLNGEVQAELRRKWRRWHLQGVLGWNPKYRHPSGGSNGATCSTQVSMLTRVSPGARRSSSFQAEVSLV

human VPAC2 receptor = biological target: T2, human VPAC2 receptor (Homo sapiens, UniProt P41587); test: cAMP stimulation in CHO cells expressing VPAC2; settings: for Emax: CHO; for Receptor selectivity ratio VPAC2/PAC1 / Receptor selectivity ratio VPAC2/VPAC1: ratio of cAMP EC50 values
T2 construct: expressed in transfected cells; host or cells: CHO cells (G418 selection)
T2 sequence (P41587 24-438): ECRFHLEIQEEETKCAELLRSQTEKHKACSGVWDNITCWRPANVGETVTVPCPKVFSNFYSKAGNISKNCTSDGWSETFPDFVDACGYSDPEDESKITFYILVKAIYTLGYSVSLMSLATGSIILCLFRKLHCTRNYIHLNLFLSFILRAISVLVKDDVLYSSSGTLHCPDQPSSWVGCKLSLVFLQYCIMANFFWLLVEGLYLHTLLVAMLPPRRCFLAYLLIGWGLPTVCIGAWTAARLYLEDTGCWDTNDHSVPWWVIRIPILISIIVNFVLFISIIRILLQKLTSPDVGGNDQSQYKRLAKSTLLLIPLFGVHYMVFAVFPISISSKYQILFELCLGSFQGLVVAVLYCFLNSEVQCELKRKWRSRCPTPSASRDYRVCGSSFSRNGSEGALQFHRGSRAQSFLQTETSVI
Protocol: (§1) Briefly, human PAC1, VPAC1, and VPAC2 receptors expressed in CHO cells were used for all experiments. Cells were grown in 50:50 DMEM-F12 medium with 10% heat-inactivated fetal bovine serum, 1X penicillin-streptomycin supplement, and 500 μg/ml G418 (neomycin) to maintain selection (all from ThermoFisher) at 37°C with 5% CO2 atmosphere. For the cAMP assay, cells were seeded at 20,000 cells/well in a 96 well plate, recovered overnight, then serum starved for 4 h. The cells were then incubated with 500 μM IBMX for 20 min, followed by agonist concentration curves in 500 μM IBMX media for 10 min. The reaction was terminated, boiled, then collected, followed by competition with 7 μg of bovine protein kinase A (Sigma-Aldrich) and ∼1 pmol of ^3H-cAMP (PerkinElmer). The assay was incubated at room temp for 1 h, then collected onto GF/B filter plates and the data read using a MicroBeta2 scintillation counter (PerkinElmer).

human PAC1 receptor = biological target: T3, human PAC1 receptor (Homo sapiens, UniProt P41586); test: cAMP stimulation in CHO cells expressing PAC1; settings: for Emax: CHO
T3 construct: expressed in transfected cells; host or cells: CHO cells (G418 selection)
T3 sequence (P41586 21-468): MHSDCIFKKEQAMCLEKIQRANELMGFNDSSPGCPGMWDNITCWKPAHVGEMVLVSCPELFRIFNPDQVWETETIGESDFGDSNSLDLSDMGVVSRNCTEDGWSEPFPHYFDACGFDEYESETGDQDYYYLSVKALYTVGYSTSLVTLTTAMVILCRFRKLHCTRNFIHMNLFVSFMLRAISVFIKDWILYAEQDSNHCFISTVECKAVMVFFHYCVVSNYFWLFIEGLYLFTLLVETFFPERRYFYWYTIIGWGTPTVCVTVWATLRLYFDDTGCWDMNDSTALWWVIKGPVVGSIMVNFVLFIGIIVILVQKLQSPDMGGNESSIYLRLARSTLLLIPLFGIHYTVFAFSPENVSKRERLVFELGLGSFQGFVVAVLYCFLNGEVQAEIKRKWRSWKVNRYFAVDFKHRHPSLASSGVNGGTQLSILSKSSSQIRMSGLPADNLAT
Protocol: as §1

Emax (human VPAC1 receptor)	Receptor selectivity ratio VPAC1/PAC1 (human VPAC1 receptor)	EC50 (human VPAC1 receptor)	EC50 (human VPAC2 receptor)	Emax (human VPAC2 receptor)	Receptor selectivity ratio VPAC2/PAC1 (human VPAC2 receptor)	Receptor selectivity ratio VPAC2/VPAC1 (human VPAC2 receptor)	EC50 (human PAC1 receptor)	Emax (human PAC1 receptor)	SMILES
108%	1.27	202 nM	737 nM	65%	4.64	3.65	159 nM	76%	CCC[C@H](NC(=O)[C@H](CCC(N)=O)NC(=O)[C@H](CCCCN)NC(=O)[C@H](CCCNC(=N)N)NC(=O)[C@H](Cc1ccc(O)cc1)NC(=O)[C@H](CCCNC(=N)N)NC(=O)[C@H](CO)NC(=O)[C@H](Cc1ccc(O)cc1)NC(=O)[C@H](CO)NC(=O)[C@H](CC(=O)O)NC(=O)[C@@H](NC(=O)[C@H](Cc1ccccc1)NC(=O)[C@@H](NC(=O)CCNC(=O)[C@H](CC(=O)O)NC(=O)[C@@H](CO)NC(=O)[C@@H](N)Cc1c[nH]cn1)[C@@H](C)CC)[C@@H](C)O)C(=O)N[C@@H](C)C(=O)N[C@H](C(=O)N[C@@H](CCCCN)C(=O)N[C@@H](CCCCN)C(=O)N[C@@H](Cc1ccc(O)cc1)C(=O)N[C@@H](CC(C)C)C(=O)N[C@@H](C)C(=O)N[C@@H](C)C(=O)N[C@H](C(=O)N[C@@H](CC(C)C)C(=O)N[C@@H](CO[C@@H]1O[C@H](CO)[C@@H](O)[C@H](O)[C@H]1O)C(N)=O)C(C)C)C(C)C [CRA3008]
108%	1.37	3.06 nM	156 nM	106%	69.96	50.98	2.23 nM	102%	CC[C@H](C)[C@H](NC(=O)CNC(=O)[C@H](CC(=O)O)NC(=O)[C@H](CO)NC(=O)[C@@H](N)Cc1c[nH]cn1)C(=O)N[C@@H](Cc1ccccc1)C(=O)N[C@H](C(=O)N[C@@H](CC(=O)O)C(=O)N[C@@H](CO)C(=O)N[C@@H](Cc1ccc(O)cc1)C(=O)N[C@@H](CO)C(=O)N[C@@H](CCCNC(=N)N)C(=O)N[C@@H](Cc1ccc(O)cc1)C(=O)N[C@@H](CCCNC(=N)N)C(=O)N[C@@H](CCCCN)C(=O)N[C@@H](CCC(N)=O)C(=O)N[C@@H](CC(C)C)C(=O)N[C@@H](C)C(=O)N[C@H](C(=O)N[C@@H](CCCCN)C(=O)N[C@@H](CCCCN)C(=O)N[C@@H](Cc1ccc(O)cc1)C(=O)N[C@@H](CC(C)C)C(=O)N[C@@H](C)C(=O)N[C@@H](C)C(=O)N[C@H](C(=O)N[C@@H](CC(C)C)C(=O)N[C@@H](CO[C@@H]1O[C@H](CO)[C@@H](O)[C@H](O)[C@H]1O)C(=O)N[C@@H](CO[C@@H]1O[C@H](CO)[C@@H](O)[C@H](O)[C@H]1O)C(N)=O)C(C)C)C(C)C)[C@@H](C)O [Compound 2LS140]
98%	0.79	2.2 nM	27.2 nM	101%	9.71	12.36	2.8 nM	96%	CC[C@H](C)[C@H](NC(=O)CNC(=O)[C@H](CC(=O)O)NC(=O)[C@H](CO)NC(=O)[C@H](Cc1c[nH]cn1)NC(C)=O)C(=O)N[C@@H](Cc1ccccc1)C(=O)N[C@H](C(=O)N[C@@H](CC(=O)O)C(=O)N[C@@H](CO)C(=O)N[C@@H](Cc1ccc(O)cc1)C(=O)N[C@@H](CO)C(=O)N[C@@H](CCCNC(=N)N)C(=O)N[C@@H](Cc1ccc(O)cc1)C(=O)N[C@@H](CCCNC(=N)N)C(=O)N[C@@H](CCCCN)C(=O)N[C@@H](CCC(N)=O)C(=O)N[C@@H](CC(C)C)C(=O)N[C@@H](C)C(=O)N[C@H](C(=O)N[C@@H](CCCCN)C(=O)N[C@@H](CCCCN)C(=O)N[C@@H](Cc1ccc(O)cc1)C(=O)N[C@@H](CC(C)C)C(=O)N[C@@H](C)C(=O)N[C@@H](C)C(=O)N[C@H](C(=O)N[C@@H](CC(C)C)C(=O)N[C@@H](CO[C@@H]1O[C@H](CO)[C@@H](O[C@@H]2O[C@H](CO)[C@H](O)[C@H](O)[C@H]2O)[C@H](O)[C@H]1O)C(N)=O)C(C)C)C(C)C)[C@@H](C)O [Ac-2LS132]
99%				114%				86%	CCC[C@H](NC(=O)[C@H](CCC(N)=O)NC(=O)[C@H](CCCCN)NC(=O)[C@H](CCCNC(=N)N)NC(=O)[C@H](Cc1ccc(O)cc1)NC(=O)[C@H](CCCNC(=N)N)NC(=O)[C@H](CO)NC(=O)[C@H](Cc1ccc(O)cc1)NC(=O)[C@H](CO)NC(=O)[C@H](CC(=O)O)NC(=O)[C@@H](NC(=O)[C@H](Cc1ccccc1)NC(=O)[C@@H](NC(=O)CNC(=O)[C@H](CC(=O)O)NC(=O)[C@@H](CO)NC(=O)[C@H](Cc1c[nH]cn1)NC(C)=O)[C@@H](C)CC)[C@@H](C)O)C(=O)N[C@@H](C)C(=O)N[C@H](C(=O)N[C@@H](CCCCN)C(=O)N[C@@H](CCCCN)C(=O)N[C@@H](Cc1ccc(O)cc1)C(=O)N[C@@H](CC(C)C)C(=O)N[C@@H](C)C(=O)N[C@@H](C)C(=O)N[C@H](C(=O)N[C@@H](CC(C)C)C(=O)N[C@@H](CO[C@@H]1O[C@H](CO)[C@@H](O[C@@H]2O[C@H](CO)[C@H](O)[C@H](O)[C@H]2O)[C@H](O)[C@H]1O)C(N)=O)C(C)C)C(C)C [Ac-CRA 3000-Lac]
125%	1.86	767 nM	> 2500 nM	55%			412 nM	75%	CCC[C@H](NC(=O)[C@H](CCC(N)=O)NC(=O)[C@H](CCCCN)NC(=O)[C@H](CCCNC(=N)N)NC(=O)[C@H](Cc1ccc(O)cc1)NC(=O)[C@H](CCCNC(=N)N)NC(=O)[C@H](CO)NC(=O)[C@H](Cc1ccc(O)cc1)NC(=O)[C@H](CO)NC(=O)[C@H](CC(=O)O)NC(=O)[C@@H](NC(=O)[C@H](Cc1ccccc1)NC(=O)[C@@H](NC(=O)CCCCNC(=O)[C@H](CC(=O)O)NC(=O)[C@@H](CO)NC(=O)[C@@H](N)Cc1c[nH]cn1)[C@@H](C)CC)[C@@H](C)O)C(=O)N[C@@H](C)C(=O)N[C@H](C(=O)N[C@@H](CCCCN)C(=O)N[C@@H](CCCCN)C(=O)N[C@@H](Cc1ccc(O)cc1)C(=O)N[C@@H](CC(C)C)C(=O)N[C@@H](C)C(=O)N[C@@H](C)C(=O)N[C@H](C(=O)N[C@@H](CC(C)C)C(=O)N[C@@H](CO[C@@H]1O[C@H](CO)[C@@H](O)[C@H](O)[C@H]1O)C(N)=O)C(C)C)C(C)C [CRA 3009]

SMILES	Emax (human VPAC1 receptor)	Receptor selectivity ratio VPAC1/PAC1 (human VPAC1 receptor)	EC50 (human VPAC1 receptor)	EC50 (human VPAC2 receptor)	Emax (human VPAC2 receptor)	Receptor selectivity ratio VPAC2/PAC1 (human VPAC2 receptor)	Receptor selectivity ratio VPAC2/VPAC1 (human VPAC2 receptor)	EC50 (human PAC1 receptor)	Emax (human PAC1 receptor)
CC[C@H](C)[C@H](NC(=O)CNC(=O)[C@H](CC(=O)O)NC(=O)[C@H](CO)NC(=O)[C@@H](N)Cc1c[nH]cn1)C(=O)N[C@@H](Cc1ccccc1)C(=O)N[C@H](C(=O)N[C@@H](CC(=O)O)C(=O)N[C@@H](CO)C(=O)N[C@@H](Cc1ccc(O)cc1)C(=O)N[C@@H](CO)C(=O)N[C@@H](CCCNC(=N)N)C(=O)N[C@@H](Cc1ccc(O)cc1)C(=O)N[C@@H](CCCNC(=N)N)C(=O)N[C@@H](CCCCN)C(=O)N[C@@H](CCC(N)=O)C(=O)N[C@@H](CC(C)C)C(=O)N[C@@H](C)C(=O)N[C@H](C(=O)N[C@@H](CCCCN)C(=O)N[C@@H](CCCCN)C(=O)N[C@@H](Cc1ccc(O)cc1)C(=O)N[C@@H](CC(C)C)C(=O)N[C@@H](C)C(=O)N[C@@H](C)C(=O)N[C@H](C(=O)N[C@@H](CC(C)C)C(=O)N[C@@H](CO[C@@H]1O[C@H](CO[C@H]2O[C@H](CO)[C@H](O)[C@H](O)[C@H]2O)[C@@H](O)[C@H](O)[C@H]1O)C(N)=O)C(C)C)C(C)C)[C@@H](C)O [Compound 2LS98Mel]	102%	0.96	0.55 nM	9.4 nM	86%	16.49	17.09	0.57 nM	99%
